Measurements from patent US20250282799A1, “SUBSTITUTED PYRIDO[4,3-d]PYRIMIDINES AS KRAS MODULATORS” (Alterome Therapeutics, Inc., priority 2023, published 2025).
pIC50: −log10 of the molar value.

tested on: KRAS G12V dependent lung adenocarcinoma cell line, NCI-H441; experiment: Cellular pERK (Thr202/Tyr204) FRET/HTRF assay; assay type: cell-based; conditions: Homo sapiens, NCI-H441, cellular pERK (Thr202/Tyr204) HTRF, NCI-H441 cells
Summary of the method: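 Read-out is a wash-free FRET sandwich immunoassay for endogenous ERK1/2 phosphorylated on Thr202/Tyr204. Signal was measured in NCI-H441 lung adenocarcinoma cells after 1 hr compound exposure at 37 °C. IC50 values come from fitted concentration-response curves.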

| SMILES | pIC50 |
| --- | --- |
| [2H]C([2H])(Oc1nc(N2CC[C@@H](C#N)C[C@H]3[C@@H](F)[C@H]32)c2cnc(-c3cc(N)cc4ccc(F)c(C#C)c34)c(F)c2n1)[C@@]12CCCN1C[C@H](F)C2 [Example 308, (1S,5S,7R,8R)-2-(7-(3-amino-8-ethynyl-7-fluoronaphthalen-1-yl)-8-fluoro-2-(((2R,7aS)-2-fluorotetrahydro-1H-pyrrolizin-7a(5H)-yl)methoxy-d2)pyrido[4,3-d]pyrimidin-4-yl)-8-fluoro-2-azabicyclo[5.1.0]octane-5-carbonitrile] | 6.30 to 7.30 |
| Cc1c(F)c(N)cc(-c2ncc3c(N4CCCC[C@H]5[C@H](F)[C@H]54)nc(OC[C@]45C/C(=C/F)CN4CCC54CC4)nc3c2F)c1C(F)(F)F [Example 381, 2-fluoro-5-(8-fluoro-4-((1S,7R,8S)-8-fluoro-2-azabicyclo[5.1.0]octan-2-yl)-2-(((R,Z)-6′-(fluoromethylene)tetrahydrospiro[cyclopropane-1,1′-pyrrolizin]-7a′(5′H)-yl)methoxy)pyrido[4,3-d]pyrimidin-7-yl)-3-methyl-4-(trifluoromethyl)aniline] | 6.30 to 7.30 |
| [2H]C([2H])(Oc1nc(N2CCOC[C@H]3[C@H](F)[C@H]32)c2cnc(-c3cc(N)cc4ccc(F)c(C#C)c34)c(F)c2n1)[C@@]12CCCN1CC(F)(F)C2 [Example 220, 4-(2-(((S)-2,2-difluorotetrahydro-1H-pyrrolizin-7a(5H)-yl)methoxy-d2)-8-fluoro-4-((1S,7S,8S)-8-fluoro-5-oxa-2-azabicyclo[5.1.0]octan-2-yl)pyrido[4,3-d]pyrimidin-7-yl)-5-ethynyl-6-fluoronaphthalen-2-amine] | > 7.30 |
| [2H]C([2H])(Oc1nc(N2CCOC[C@H]3[C@H](F)[C@H]32)c2cnc(-c3cc(N)cc4ccc(F)c(C#C)c34)c(F)c2n1)[C@@]12CCCN1C[C@H](Cl)C2 (single isomer, unassigned) [Example 238] | > 7.30 |
| [2H]C([2H])(Oc1nc(N2CCOC[C@H]3[C@H](F)[C@H]32)c2cnc(-c3cc(N)cc4ccc(F)c(C#C)c34)c(F)c2n1)[C@@]12CCCN1C[C@H](C#N)C2 [Example 276, (2R,7aS)-7a-(((7-(3-amino-8-ethynyl-7-fluoronaphthalen-1-yl)-8-fluoro-4-((1S,7S,8S)-8-fluoro-5-oxa-2-azabicyclo[5.1.0]octan-2-yl)pyrido[4,3-d]pyrimidin-2-yl)oxy)methyl-d2)hexahydro-1H-pyrrolizine-2-carbonitrile] | > 7.30 |
| C#Cc1c(F)ccc2cc(N)cc(-c3ncc4c(N5CCOC[C@@H]6[C@@H](Cl)[C@@H]65)nc(OC[C@@H]5CCCN5C)nc4c3F)c12 [Example 301, 4-(4-((1R,7R,8R)-8-chloro-5-oxa-2-azabicyclo[5.1.0]octan-2-yl)-8-fluoro-2-(((S)-1-methylpyrrolidin-2-yl)methoxy)pyrido[4,3-d]pyrimidin-7-yl)-5-ethynyl-6-fluoronaphthalen-2-amine] | 6.30 to 7.30 |
| C#Cc1cccc2cc(O)cc(-c3ncc4c(N5CCOC[C@H]6[C@H](F)[C@H]65)nc(OC[C@@H]5CCCN5C)nc4c3F)c12 [Example 295, 5-ethynyl-4-(8-fluoro-4-((1S,7S,8S)-8-fluoro-5-oxa-2-azabicyclo[5.1.0]octan-2-yl)-2-(((S)-1-methylpyrrolidin-2-yl)methoxy)pyrido[4,3-d]pyrimidin-7-yl)naphthalen-2-ol] | > 7.30 |
| C#Cc1c(F)ccc2cc(N)cc(-c3ncc4c(N5CCOC[C@H]6[C@H](F)[C@H]65)nc(OC[C@@]56CC[C@H](C)N5C[C@H](F)C6)nc4c3F)c12 [Example 259, 5-Ethynyl-6-fluoro-4-(8-fluoro-2-(((2R,5S,7aS)-2-fluoro-5-methyltetrahydro-1H-pyrrolizin-7a(5H)-yl)methoxy)-4-((1S,7S,8S)-8-fluoro-5-oxa-2-azabicyclo[5.1.0]octan-2-yl)pyrido[4,3-d]pyrimidin-7-yl)naphthalen-2-amine] | > 7.30 |
| Nc1cc(Cl)c(C(F)(F)F)c(-c2ncc3c(N4CCCC[C@H]5[C@H](F)[C@H]54)nc(OC[C@]45C/C(=C\F)CN4CCC54CC4)nc3c2F)c1 [Example 378, 3-chloro-5-(8-fluoro-4-((1S,7R,8S)-8-fluoro-2-azabicyclo[5.1.0]octan-2-yl)-2-(((R,E)-6′-(fluoromethylene)tetrahydrospiro[cyclopropane-1,1′-pyrrolizin]-7a′(5′H)-yl)methoxy)pyrido[4,3-d]pyrimidin-7-yl)-4-(trifluoromethyl)aniline] | 6.30 to 7.30 |
| [2H]C([2H])([2H])Oc1c(F)c(F)c(F)c2cccc(-c3ncc4c(N5CCOC[C@H]6[C@H](F)[C@H]65)nc(OC([2H])([2H])[C@@]56CCCN5C[C@H](F)C6)nc4c3F)c12 [Example 123, (1S,7S,8S)-8-fluoro-2-(8-fluoro-2-(((2R,7aS)-2-fluorotetrahydro-1H-pyrrolizin-7a(5H)-yl)methoxy-d2)-7-(5,6,7-trifluoro-8-(methoxy-d3)naphthalen-1-yl)pyrido[4,3-d]pyrimidin-4-yl)-5-oxa-2-azabicyclo[5.1.0]octane] | 6.30 to 7.30 |
| C#Cc1c(F)ccc2cc(N)cc(-c3ncc4c(N5CCOC[C@H]6[C@H](F)[C@H]65)nc(OC[C@]56C[C@@H](C)CN5CCC65CC5)nc4c3F)c12 (single isomer, unassigned) [Example 242] | > 7.30 |
| [2H]C([2H])(Oc1nc(N2CCC(=O)C[C@H]3[C@@H](F)[C@H]32)c2cnc(-c3cc(N)cc4cc(F)c(F)c(C#C)c34)c(F)c2n1)[C@@]12CCCN1C[C@H](F)C2 [Example 197, (1S,7R,8R)-2-(7-(3-amino-8-ethynyl-6,7-difluoronaphthalen-1-yl)-8-fluoro-2-(((2R,7aS)-2-fluorotetrahydro-1H-pyrrolizin-7a(5H)-yl)methoxy-d2)pyrido[4,3-d]pyrimidin-4-yl)-8-fluoro-2-azabicyclo[5.1.0]octan-5-one] | 6.30 to 7.30 |
| Cc1c(F)c(N)cc(-c2ncc3c(N4CCCC[C@H]5[C@H](F)[C@H]54)nc(OC[C@@]45CCCN4C/C(=C\F)C5)nc3c2F)c1C(F)(F)F [Example 398, 2-fluoro-5-(8-fluoro-4-((1S,7R,8S)-8-fluoro-2-azabicyclo[5.1.0]octan-2-yl)-2-(((S,Z)-2-(fluoromethylene)tetrahydro-1H-pyrrolizin-7a(5H)-yl)methoxy)pyrido[4,3-d]pyrimidin-7-yl)-3-methyl-4-(trifluoromethyl)aniline] | 6.30 to 7.30 |
| [2H]C([2H])(Oc1nc(N2CCOC[C@H]3[C@H](F)[C@H]32)c2cnc(-c3cc(N)cc4ccc(C)c(C#C)c34)c(F)c2n1)[C@@]12CCCN1C[C@H](F)C2 [Example 331, 5-Ethynyl-4-(8-fluoro-4-((1S,7S,8S)-8-fluoro-5-oxa-2-azabicyclo[5.1.0]octan-2-yl)-2-(((2R,7aS)-2-fluorotetrahydro-1H-pyrrolizin-7a(5H)-yl)methoxy-d2)pyrido[4,3-d]pyrimidin-7-yl)-6-methylnaphthalen-2-amine] | > 7.30 |

same assay, conditions: Homo sapiens, NCI-H441, pERK HTRF, NCI-H441 cells (KRAS G12V)

| SMILES | pIC50 |
| --- | --- |
| [2H]C([2H])(Oc1nc(N2CCC[C@@H]3[C@H](F)[C@@H]32)c2cnc(-c3cc(N)cc4cc(F)c(F)c(C#C)c34)c(F)c2n1)[C@@]12CCCN1C[C@H](F)C2 [Example 63, 5-Ethynyl-6,7-difluoro-4-(8-fluoro-4-((1R,6S,7S)-7-fluoro-2-azabicyclo[4.1.0]heptan-2-yl)-2-(((2R,7aS)-2-fluorotetrahydro-1H-pyrrolizin-7a(5H)-yl)methoxy-d2)pyrido[4,3-d]pyrimidin-7-yl)naphthalen-2-amine] | 5.00 to 6.30 |
| [2H]C([2H])(Oc1nc(N2CCOC[C@@H]3[C@@H](F)[C@@H]32)c2cnc(-c3cc(N)cc4cc(F)c(F)c(C#C)c34)c(F)c2n1)[C@@]12CCCN1C[C@H](F)C2 [Example 27, 5-Ethynyl-6,7-difluoro-4-(8-fluoro-4-((1R,7R,8R)-8-fluoro-5-oxa-2-azabicyclo[5.1.0]octan-2-yl)-2-(((2R,7aS)-2-fluorotetrahydro-1H-pyrrolizin-7a(5H)-yl)methoxy-d2)pyrido[4,3-d]pyrimidin-7-yl)naphthalen-2-amine] | 6.30 to 7.30 |
| [2H]C([2H])(Oc1nc(N2CCOC[C@H]3[C@H](F)[C@H]32)c2cnc(-c3cc(N)cc4c(F)c(F)c(F)c(C#C)c34)c(F)c2n1)[C@@]12CCCN1C[C@H](F)C2 [Example 93, 5-Ethynyl-6,7,8-trifluoro-4-(8-fluoro-4-((1S,7S,8S)-8-fluoro-5-oxa-2-azabicyclo[5.1.0]octan-2-yl)-2-(((2R,7aS)-2-fluorotetrahydro-1H-pyrrolizin-7a(5H)-yl)methoxy-d2)pyrido[4,3-d]pyrimidin-7-yl)naphthalen-2-amine] | > 7.30 |
| [2H]C([2H])(Oc1nc(N2CCOC[C@@H]3[C@H]2C3(F)F)c2cnc(-c3cc(N)cc4cc(F)c(F)c(C#C)c34)c(F)c2n1)[C@@]12CCCN1C[C@H](F)C2 [Example 19, 4-(4-((1S,7S)-8,8-Difluoro-5-oxa-2-azabicyclo[5.1.0]octan-2-yl)-8-fluoro-2-(((2R,7aS)-2-fluorotetrahydro-1H-pyrrolizin-7a(5H)-yl)methoxy-d2)pyrido[4,3-d]pyrimidin-7-yl)-5-ethynyl-6,7-difluoronaphthalen-2-amine] | > 7.30 |
| [2H]C([2H])([2H])Oc1c(F)c(F)c(F)c2cc(N)cc(-c3ncc4c(N5CCCC[C@H]6[C@H](F)[C@H]65)nc(OC([2H])([2H])[C@@]56CCCN5C[C@H](F)C6)nc4c3F)c12 [Example 69, 6,7,8-Trifluoro-4-(8-fluoro-4-((1S,7R,8S)-8-fluoro-2-azabicyclo[5.1.0]octan-2-yl)-2-(((2R,7aS)-2-fluorotetrahydro-1H-pyrrolizin-7a(5H)-yl)methoxy-d2)pyrido[4,3-d]pyrimidin-7-yl)-5-(methoxy-d3)naphthalen-2-amine] | > 7.30 |
